Measured values taken from patent US20240279202A1 (NURIX THERAPEUTICS, INC., priority 2021, published 2024).

Biological target: T1, ITK (Homo sapiens, UniProt Q08881)
T1 sequence (Q08881 1-620): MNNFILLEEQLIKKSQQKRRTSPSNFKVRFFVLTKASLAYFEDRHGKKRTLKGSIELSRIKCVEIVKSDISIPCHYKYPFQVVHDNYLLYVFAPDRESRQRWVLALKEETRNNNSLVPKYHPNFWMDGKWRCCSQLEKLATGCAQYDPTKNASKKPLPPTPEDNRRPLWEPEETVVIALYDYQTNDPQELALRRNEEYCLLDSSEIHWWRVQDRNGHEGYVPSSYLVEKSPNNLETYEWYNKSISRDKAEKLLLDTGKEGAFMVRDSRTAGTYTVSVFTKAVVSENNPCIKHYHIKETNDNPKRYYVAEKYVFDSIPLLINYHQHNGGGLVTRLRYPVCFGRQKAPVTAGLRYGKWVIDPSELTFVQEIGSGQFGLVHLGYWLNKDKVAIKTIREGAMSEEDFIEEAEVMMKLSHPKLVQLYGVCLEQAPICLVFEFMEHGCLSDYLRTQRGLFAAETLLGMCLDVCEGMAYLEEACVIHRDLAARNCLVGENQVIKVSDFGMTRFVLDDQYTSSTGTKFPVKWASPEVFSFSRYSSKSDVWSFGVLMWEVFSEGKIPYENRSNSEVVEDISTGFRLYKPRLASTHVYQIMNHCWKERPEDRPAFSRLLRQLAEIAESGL
Test: ITK degradation HiBiT assay
Assay type: cell-based
Parameters: expressed in transfected cells; host or cells: Molt4 (ATCC CRL-1552), monoclonal clone 1C10, engineered to carry the HiBiT tag
Settings: 4 hrs; for DC50: C-terminal HiBiT-tagged Molt4 cells; for Dmax: MOLT-4, C-terminal HiBiT-tagged Molt4 cells
Method in brief: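 C-terminal HiBiT-tagged Molt4 cells (clone 1C10) treated 4 h at 32° C with an 11-point, 5-fold compound dilution series (0.5% DMSO). HiBiT lytic detection with LgBiT then luminescence read; % ITK remaining versus concentration fit by four-parameter variable-slope model to give DC50 and Dmax.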

DC50 [nM]	Dmax [%]	SMILES
1.42	75	CC1(C)CCc2c(-c3cc4ccc(C(=O)N5CCN(CC6CCN(c7ccc(C8CCC(=O)NC8=O)cc7F)CC6)CC5)cc4[nH]3)n[nH]c2C1 (stereo not shown) [Compound 222, 3-{4-[4-({4-[2-(6,6-dimethyl-1,4,5,7-tetrahydroindazol-3-yl)-1H-indole-6-carbonyl]piperazin-1-yl}methyl)piperidin-1-yl]-3-fluorophenyl}piperidine-2,6-dione]
1.4	89	C[C@@]12Cc3[nH]nc(-c4cc5cc(F)c(C(=O)N6CCN(CC7CCN(c8ccc([C@H]9CCC(=O)NC9=O)cc8)CC7)CC6)cc5[nH]4)c3C[C@@H]1C2(F)F (single isomer, unassigned) [Compound 220]
	86	C[C@@]12Cc3[nH]nc(C(=O)Nc4cnn(C5CCN(C(=O)[C@H]6CC[C@H](Cn7ncc8cc(C9CCC(=O)NC9=O)ccc87)CC6)CC5)c4)c3C[C@@H]1C2(F)F (mixture of isomers) [Compound 164]
	70	COc1cc(N2CCC(CN3CCN(C(=O)c4ccc5cc(-c6n[nH]c7c6CCC(C)(C)C7)[nH]c5c4)CC3)CC2)ccc1C1CCC(=O)NC1=O (stereo not shown) [Compound 184]
	78	CC1(C)CCc2c(-c3cc4ccc(C(=O)N5CCC(CN6CCCN(c7ccc(C8CCC(=O)NC8=O)cn7)CC6)CC5)cc4[nH]3)n[nH]c2C1 (stereo not shown) [Compound 191]
8.5	84	COC[C@@]1(C)CCc2c(-c3cc4ccc(C(=O)N5CCN(CC6CCN(c7ccc(C8CCC(=O)NC8=O)cc7)CC6)CC5)cc4[nH]3)n[nH]c2C1 (mixture of isomers) [Compound 224, (3RS)-3-(4-{4-[(4-{2-[(6S)-6-(methoxymethyl)-6-methyl-1,4,5,7-tetrahydroindazol-3-yl]-1H-indole-6-carbonyl}piperazin-1-yl)methyl]piperidin-1-yl}phenyl)piperidine-2,6-dione]
	85	CC1(C)CCc2c(-c3cc4ccc(C(=O)N5CCC(CN6CCc7cc(C8CCC(=O)NC8=O)ccc7C6)CC5)cc4[nH]3)n[nH]c2C1 (stereo not shown) [Compound 193]
	84	C[C@@H]1CN(C(=O)c2ccc3cc(-c4n[nH]c5c4C[C@@H]4C(F)(F)[C@]4(C)C5)[nH]c3c2)CCN1CC1CCN(c2ccc(C3CCC(=O)NC3=O)cc2)CC1 (stereo partly shown) [Compound 159]
	86	C[C@H]1CN(c2ccc(C3CCC(=O)NC3=O)cn2)CCN1CC1CCN(C(=O)c2ccc3cc(-c4n[nH]c5c4CCC(C)(C)C5)[nH]c3c2)CC1 (stereo partly shown) [Compound 190]

The remaining lines, values behind:

SMILES	DC50 [nM]	Dmax [%]
CN(c1ccc(C2CCC(=O)NC2=O)cn1)C1CCN(CC2CCN(C(=O)c3ccc4cc(-c5n[nH]c6c5CCC(C)(C)C6)[nH]c4c3)CC2)CC1 (stereo not shown) [Compound 62, 3-(6-((1-((1-(2-(6,6-dimethyl-4,5,6,7-tetrahydro-1H-indazol-3-yl)-1H-indole-6-carbonyl)piperidin-4-yl)methyl)piperidin-4-yl)(methyl)amino)pyridin-3-yl)piperidine-2,6-dione]	0.002	72
COC[C@@]1(C)CCc2c(-c3cc4ccc(C(=O)N5CCN(CC6CCN(c7ccc(C8CCC(=O)NC8=O)cc7)CC6)CC5)cc4[nH]3)n[nH]c2C1 (stereo partly shown) [Compound 140]		84
C[C@@]12Cc3[nH]nc(C(=O)Nc4cnn(C5CCN(CC6(F)CCN(c7ccc(C8CCC(=O)NC8=O)cc7)CC6)CC5)c4)c3C[C@@H]1C2(F)F (stereo partly drawn) [Compound 97, (4aS,5aR)-N-(1-(1-((1-(4-(2,6-dioxopiperidin-3-yl)phenyl)-4-fluoropiperidin-4-yl)methyl)piperidin-4-yl)-1H-pyrazol-4-yl)-5,5-difluoro-5a-methyl-1,4,4a,5,5a,6-hexahydrocyclopropa[f]indazole-3-carboxamide]	2.6	88
C[C@@H]1CN(C(=O)c2ccc3cc(-c4n[nH]c5c4CCC(C)(C)C5)[nH]c3c2)CCN1CC1CCN(c2ccc(C3CCC(=O)NC3=O)cn2)CC1 (stereo partly drawn) [Compound 129, 3-(6-(4-(((R)-4-(2-(6,6-dimethyl-4,5,6,7-tetrahydro-1H-indazol-3-yl)-1H-indole-6-carbonyl)-2-methylpiperazin-1-yl)methyl)piperidin-1-yl)pyridin-3-yl)piperidine-2,6-dione]	4.9	81
C[C@@]12Cc3[nH]nc(C(=O)Nc4cnn(C5CCN(CC6CCN(c7ccc(C8CCC(=O)NC8=O)cc7F)CC6)CC5)c4)c3C[C@@H]1C2(F)F (mixture of isomers) [Compound 112, (4aS,5aR)-N-(1-{1-[(1-{4-[(3RS)-2,6-dioxopiperidin-3-yl]-2-fluorophenyl}piperidin-4-yl)methyl]piperidin-4-yl}-1H-pyrazol-4-yl)-5,5-difluoro-5a-methyl-1H,4H,4aH,5H,5aH,6H-cyclopropa[f]indazole-3-carboxamide]	0.14	87
C[C@@]12Cc3[nH]nc(-c4cc5cc(C(=O)N6CCN(C[C@@H]7CCN(c8ccc(C9CCC(=O)NC9=O)cc8)C7)CC6)ccc5[nH]4)c3C[C@@H]1C2(F)F (stereo partly shown) [Compound 143]		81
C[C@@]12Cc3[nH]nc(C(=O)Nc4ccc(C5CCN(CC6CCN(c7ccc(C8CCC(=O)NC8=O)cn7)CC6)CC5)cc4)c3C[C@@H]1C2(F)F (stereo partly drawn) [Compound 109, (4aS,5aR)-N-(4-(1-((1-(5-(2,6-dioxopiperidin-3-yl)pyridin-2-yl)piperidin-4-yl)methyl)piperidin-4-yl)phenyl)-5,5-difluoro-5a-methyl-1,4,4a,5,5a,6-hexahydrocyclopropa[f]indazole-3-carboxamide]	0.73	91
C[C@@H]1CN(C(=O)c2ccc3cc(-c4n[nH]c5c4CCC(C)(C)C5)[nH]c3c2)C[C@H](C)N1CC1CCN(c2ccc(C3CCC(=O)NC3=O)cc2)CC1 (stereo partly shown) [Compound 157]		84
CC1(C)CCc2c(-c3cc4ccc(C(=O)N5CCN(CC6CCN(c7ccc(C8CCC(=O)NC8=O)cn7)CC6)C(C)(C)C5)cc4[nH]3)n[nH]c2C1 (stereo not shown) [Compound 133, 3-(6-(4-((4-(2-(6,6-dimethyl-4,5,6,7-tetrahydro-1H-indazol-3-yl)-1H-indole-6-carbonyl)-2,2-dimethylpiperazin-1-yl)methyl)piperidin-1-yl)pyridin-3-yl)piperidine-2,6-dione]	1.6	86
C[C@@]12Cc3[nH]nc(C(=O)Nc4cnn(C5CCC(CN6CCC(Oc7ccc(C8CCC(=O)NC8=O)cn7)CC6)CC5)c4)c3C[C@@H]1C2(F)F (stereo partly drawn) [Compound 124, (4aS,5aR)-5,5-difluoro-5a-methyl-N-{1-[(1rs,4rs)-4-{[4-({5-[(3R)-2,6-dioxopiperidin-3-yl]pyridin-2-yl}oxy)piperidin-1-yl]methyl}cyclohexyl]-1H-pyrazol-4-yl}-1H,4H,4aH,5H,5aH,6H-cyclopropa[f]indazole-3-carboxamide]	3.7	90
C[C@@]12Cc3[nH]nc(C(=O)Nc4cnn([C@H](c5ccccc5)C5CN(C(=O)N6CCC7(CCN(c8ccc9c(c8)C(=O)N(C8CCC(=O)NC8=O)C9=O)CC7)C6)C5)c4)c3C[C@@H]1C2(F)F (stereo partly shown) [Compound 53]	3.3	94
C[C@@]12Cc3[nH]nc(C(=O)Nc4cnn(C5CN(CC6CCN(c7ccc(C8CCC(=O)NC8=O)cc7)CC6)C5)c4)c3C[C@@H]1C2(F)F (stereo partly drawn) [Compound 91, (4aS,5aR)-N-(1-(1-((1-(4-(2,6-dioxopiperidin-3-yl)phenyl)piperidin-4-yl)methyl)azetidin-3-yl)-1H-pyrazol-4-yl)-5,5-difluoro-5a-methyl-1,4,4a,5,5a,6-hexahydrocyclopropa[f]indazole-3-carboxamide]	0.24	85
CC1(C)CCc2c(C(=O)Nc3cnn(C4CCN(CC5CCN(c6ccc([C@@H]7CCC(=O)NC7=O)cc6)CC5)CC4)c3)n[nH]c2C1 [Compound 121, N-(1-{1-[(1-{4-[(3S)-2,6-dioxopiperidin-3-yl]phenyl}piperidin-4-yl)methyl]piperidin-4-yl}-1H-pyrazol-4-yl)-6,6-dimethyl-4,5,6,7-tetrahydro-1H-indazole-3-carboxamide]	2.03	76
C[C@@H]1CN(C(=O)c2ccc3cc(-c4n[nH]c5c4C[C@@H]4C(F)(F)[C@]4(C)C5)[nH]c3c2)C[C@H](C)N1CC1CCN(c2ccc(C3CCC(=O)NC3=O)cc2)CC1 (stereo partly shown) [Compound 158]		88
C[C@@]12Cc3[nH]nc(C(=O)Nc4cnn([C@H]5CCN(CC6CCN(c7ccc([C@H]8CCC(=O)NC8=O)cc7)CC6)C[C@@H]5F)c4)c3C[C@@H]1C2(F)F (single isomer, unassigned) [Compound 95]	0.6	90
CC1(C)CCc2c(-c3cc4ccc(C(=O)N5CCC(CN6CCN(c7ccc(C8CCC(=O)NC8=O)cn7)CC6)CC5)cc4[nH]3)n[nH]c2C1 (stereo not shown) [Compound 59, 3-(6-(4-((1-(2-(6,6-dimethyl-4,5,6,7-tetrahydro-1H-indazol-3-yl)-1H-indole-6-carbonyl)piperidin-4-yl)methyl)piperazin-1-yl)pyridin-3-yl)piperidine-2,6-dione]	0.05	81
